Paper PMC6151383 (Molecules : A Journal of Synthetic Chemistry and Natural …, 2017)
Values after ≈ are worked out from the molar mass of the structure shown. Like-named read-outs stand apart in the source and are kept apart here.

Experiments:
[1] = test system: Staphylococcus aureus CCM 4516/08; experiment: Antibacterial microdilution broth MIC, S. aureus; assay type: cell-based; conditions: Staphylococcus aureus, CCM4516; 48 h incubation; read-out: MIC SA 48 h
[2] = test system: Staphylococcus epidermidis H 6966/08; experiment: Antibacterial microdilution broth MIC, S. epidermidis; assay type: cell-based; conditions: Staphylococcus epidermidis, H6966/08; 48 h incubation; read-out: MIC SE 48 h
[3] = test system: Enterococcus faecalis J 14365/08; experiment: Antibacterial microdilution broth MIC, E. faecalis; assay type: cell-based; conditions: Enterococcus faecalis, J14365/08; 48 h incubation; read-out: MIC EF 48 h
[4] = test system: Escherichia coli CCM 4517; experiment: Antibacterial microdilution broth MIC, E. coli; assay type: cell-based; conditions: Escherichia coli, CCM4517; 48 h incubation; read-out: MIC EC 48 h
[5] = test system: Pseudomonas aeruginosa CCM 1961; experiment: Antibacterial microdilution broth MIC, P. aeruginosa; assay type: cell-based; conditions: Pseudomonas aeruginosa, CCM1961; 48 h incubation; read-out: MIC PA 48 h
[6] = test system: Mycobacterium tuberculosis 331/88 (H37Rv); experiment: In vitro antimycobacterial MIC, M. tuberculosis; assay type: cell-based
[7] = test system: Mycobacterium avium 330/88; experiment: In vitro antimycobacterial MIC, M. avium; assay type: cell-based
[8] = test system: Mycobacterium kansasii 235/80; experiment: In vitro antimycobacterial MIC, M. kansasii 235/80; assay type: cell-based
M. kansasii 6509/96 = experiment: In vitro antimycobacterial MIC, M. kansasii clinical isolate; assay type: cell-based; conditions: Mycobacterium kansasii
[9] = test system: Candida albicans ATCC 44859; experiment: Antifungal microdilution broth MIC, C. albicans; assay type: cell-based; conditions: ATCC44859, 48 h incubation, read-out: MIC CA 48 h
Candida tropicalis 156 = experiment: Antifungal microdilution broth MIC, C. tropicalis; assay type: cell-based; conditions: Candida tropicalis, 156; 48 h incubation; read-out: MIC CT 48 h
Candida krusei E28 = experiment: Antifungal microdilution broth MIC, C. krusei; assay type: cell-based; conditions: Pichia kudriavzevii, E28; 48 h incubation; read-out: MIC CK 48 h
Candida glabrata 20/I = experiment: Antifungal microdilution broth MIC, C. glabrata; assay type: cell-based; conditions: Nakaseomyces glabratus, 48 h incubation, read-out: MIC CG 48 h
Trichosporon asahii 1188 = experiment: Antifungal microdilution broth MIC, T. asahii; assay type: cell-based; conditions: Trichosporon asahii, 1188; 48 h incubation; read-out: MIC TA 48 h
[10] = test system: Aspergillus fumigatus 231; experiment: Antifungal microdilution broth MIC, A. fumigatus; assay type: cell-based; conditions: Aspergillus fumigatus, 231; 48 h incubation; read-out: MIC AF 48 h
[11] = test system: Lichtheimia corymbifera 272; experiment: Antifungal microdilution broth MIC, L. corymbifera; assay type: cell-based; conditions: Lichtheimia corymbifera, 272; 48 h incubation; read-out: MIC LC 48 h
[12] = test system: Trichophyton interdigitale 445; experiment: Antifungal microdilution broth MIC, T. interdigitale; assay type: cell-based
Candida sp. = experiment: Selectivity index for Candida sp. (IC50 HepG2/MIC); assay type: cell-based; conditions: all Candida species
M. tuberculosis and NTM = experiment: Antimycobacterial activity, panel; assay type: cell-based; conditions: Mycobacterium tuberculosis
[13] = test system: Klebsiella pneumoniae D 11750/08
[14] = test system: ESBL-positive Klebsiella pneumoniae J 14368/08
[15] = test system: Gram-positive and Gram-negative bacteria; conditions: both Gram-positive and Gram-negative bacteria; cited from earlier work

Question: With O=S(=O)(Nc1ncccn1)c1ccc(N=Cc2ccccc2O)cc1 [Compound 2a, 4-[(2-Hydroxybenzylidene)amino]-N-(pyrimidin-2-yl)benzenesulfonamide] as the compound, how does the MIC [1] read?
Answer: 500 µM (≈ 177 µg/mL)

Question: And the MIC [2]?
Answer: 62.5 µM (≈ 22.1 µg/mL)

Question: What about the MIC [3] of the same compound?
Answer: 62.5 µM (≈ 22.1 µg/mL)

Question: What about the MIC [4] of the same compound?
Answer: > 500 µM

Question: And the MIC [5]?
Answer: 500 µM (≈ 177 µg/mL)

Question: What about the MIC ([6]; 336 h, 14 d incubation, read-out: MIC Mtb. 331/88 14 d) of the same compound?
Answer: 16 µM (≈ 5.67 µg/mL)

Question: And the MIC ([6]; 504 h, 21 d incubation, read-out: MIC Mtb. 331/88 21 d)?
Answer: 32 µM (≈ 11.3 µg/mL)

Question: What about the MIC ([7]; 330/88, 336 h, 14 d incubation, read-out: MIC M. avium 330/88 14 d) of the same compound?
Answer: 125 µM (≈ 44.3 µg/mL)

Question: What about the MIC ([7]; 330/88, 504 h, 21 d incubation, read-out: MIC M. avium 330/88 21 d) of the same compound?
Answer: 250 µM (≈ 88.6 µg/mL)

Question: What about the MIC ([8]; 235/80, 168 h, 7 d incubation, read-out: MIC M. kansasii 235/80 7 d) of the same compound?
Answer: 8 µM (≈ 2.84 µg/mL)

Question: What about the MIC ([8]; 235/80, 336 h, 14 d incubation, read-out: MIC M. kansasii 235/80 14 d) of the same compound?
Answer: 16 µM (≈ 5.67 µg/mL)

Question: What about the MIC ([8]; 235/80, 504 h, 21 d incubation, read-out: MIC M. kansasii 235/80 21 d) of the same compound?
Answer: 32 µM (≈ 11.3 µg/mL)

Question: And the MIC (M. kansasii 6509/96; 6509/96, 168 h, 7 d incubation, read-out: MIC M. kansasii 6509/96 7 d)?
Answer: 8 µM (≈ 2.84 µg/mL)

Question: What about the MIC (M. kansasii 6509/96; 6509/96, 336 h, 14 d incubation, read-out: MIC M. kansasii 6509/96 14 d) of the same compound?
Answer: 16 µM (≈ 5.67 µg/mL)

Question: What about the MIC (M. kansasii 6509/96; 6509/96, 504 h, 21 d incubation, read-out: MIC M. kansasii 6509/96 21 d) of the same compound?
Answer: 32 µM (≈ 11.3 µg/mL)

Question: What about the MIC [9] of the same compound?
Answer: > 500 µM

Question: What about the MIC (Candida tropicalis 156) of the same compound?
Answer: > 500 µM

Question: And the MIC (Candida krusei E28)?
Answer: > 500 µM

Question: What about the MIC (Candida glabrata 20/I) of the same compound?
Answer: > 500 µM

Question: And the MIC (Trichosporon asahii 1188)?
Answer: > 500 µM

Question: What about the MIC [10] of the same compound?
Answer: > 500 µM

Question: And the MIC [11]?
Answer: > 500 µM

Question: And the MIC ([12]; Trichophyton interdigitale, 445, 72 h, read-out: MIC TI 72 h)?
Answer: 125 µM (≈ 44.3 µg/mL)

Question: And the MIC ([12]; Trichophyton interdigitale, 445, 120 h, read-out: MIC TI 120 h)?
Answer: 125 µM (≈ 44.3 µg/mL)

Question: What about the MIC ([12]; Trichophyton interdigitale, 445, read-out: MIC for T. interdigitale) of the same compound?
Answer: 125 µM (≈ 44.3 µg/mL)

Question: And the “SI for Candida sp.” value (Candida sp.)?
Answer: inactive

Question: And the MIC (M. tuberculosis and NTM; M. tuberculosis and both M. kansasii strains only, read-out: MIC, M. tuberculosis and both M. kansasii strains)?
Answer: ≤ 32 µM

Question: And the MIC (M. tuberculosis and NTM; range over all four mycobacterial strains and incubation times, read-out: MIC, M. tuberculosis and NTM)?
Answer: 8 to 250 µM (≈ 2.84 to 88.6 µg/mL)

Question: And the “MIC KP 24 h” value ([13]; 24 h)?
Answer: >500 µM

Question: And the “MIC KP 48 h” value ([13]; 48 h)?
Answer: >500 µM

Question: And the “MIC KP-E 24 h” value ([14]; 24 h)?
Answer: >500 µM

Question: And the “MIC KP-E 48 h” value ([14]; 48 h)?
Answer: >500 µM

Question: And the “minimum inhibitory concentrations (MICs)” value [15]?
Answer: 100 to 250 µg/mL
